Assay results as given in US20120202814A1, “COMPOUNDS WITH DDX3 INHIBITORY ACTIVITY AND USES THEREOF” (UNIVERSITÀ DEGLI STUDI DI SIENA, priority 2009, published 2012).
Where two headings read alike, the source gives them in different places.

Columns and labels:
[1] = target: T1, human DDX3 (helicase activity) (Homo sapiens, UniProt O00571); assay: Human DDX3 helicase activity assay (ds to ss nucleic acid unwinding); type: biochemical; details: for IC50: anti-helicase activity, na = not active, read-out: Helicase ID50; for fold higher potency against the helicase with respect to the ATPase activity: helicase versus ATPase ID50; for fold improvement in anti-helicase activity with respect to EI01: ratio of helicase ID50
T1 construct: made in house
T1 sequence (O00571 whole entry): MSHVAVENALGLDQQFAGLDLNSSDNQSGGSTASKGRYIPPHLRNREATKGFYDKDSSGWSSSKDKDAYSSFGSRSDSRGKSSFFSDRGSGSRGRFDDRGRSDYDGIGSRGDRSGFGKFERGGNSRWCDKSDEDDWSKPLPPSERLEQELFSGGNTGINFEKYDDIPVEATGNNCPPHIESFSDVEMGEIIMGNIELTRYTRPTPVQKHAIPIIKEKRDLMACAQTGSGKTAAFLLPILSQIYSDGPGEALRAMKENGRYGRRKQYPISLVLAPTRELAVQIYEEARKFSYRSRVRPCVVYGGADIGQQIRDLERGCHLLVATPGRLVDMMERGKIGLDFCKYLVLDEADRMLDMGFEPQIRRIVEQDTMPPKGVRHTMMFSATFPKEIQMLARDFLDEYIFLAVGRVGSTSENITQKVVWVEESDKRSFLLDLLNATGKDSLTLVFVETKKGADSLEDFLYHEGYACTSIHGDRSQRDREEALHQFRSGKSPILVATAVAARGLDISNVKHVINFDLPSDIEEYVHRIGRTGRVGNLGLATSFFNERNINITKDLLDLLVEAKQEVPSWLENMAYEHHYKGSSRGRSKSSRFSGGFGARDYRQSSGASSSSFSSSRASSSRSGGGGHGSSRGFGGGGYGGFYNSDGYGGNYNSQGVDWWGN
Procedure: The helicase activity of DDX3 wt and mutant forms was monitored by measuring the conversion of a double stranded (ds) DNA or RNA (labelled at the 5′-end of one strand with a 6-FAM fluorescent group or P^32, respectively) into single stranded (ss) nucleic acid. Reactions were performed in 50 mM TrisHCl pH 7.5, 1 mM DTT, 0.2 mg/ml BSA, 5% glycerol and 100 μM ATP, 10 mM MgCl2 at 37° C. degrees for 10′ and stopped by adding EDTA 50 mM pH 8. Products were separated through non-denaturating 8% PAGE at 5 W for 2 hours in TBE buffer at 4° C. Substrates and products were quantified by laser scanning densitometry (Thyphoon-TRIO, GE Healthcare).
(§1) Human recombinant DDX3 was cloned, expressed and purified as described (Franca et al. Proteins 2007, 67, 1128-37).
Compounds were obtained by application of a virtual docking protocol on the RNA-binding site identified in the homology model developed in the present invention. These compounds were commercially available (EI-compounds in Table 4). A few other compounds (25-31, EXAMPLE 6) were rationally designed to target the above mentioned RNA-binding site and then synthesized. All the compounds were tested for anti-helicase activity.

[2] = target: T2, human DDX3 (ATPase activity) (Homo sapiens, UniProt O00571); assay: Human DDX3 ATPase activity assay (luciferase-based luminescence); type: biochemical; details: for Ki: DDX3 ATPase activity, read-out: Ki (μM), apparent equilibrium dissociation constant for the inhibitor to the target enzyme DDX3; for IC50: ATPase activity, read-out: ATPase ID50
T2 construct: made in house; host or cells: E. coli
T2 sequence (O00571 whole entry): as above
Procedure: ATPase activity was tested with a luciferase-based luminescence assay (Easylite-Kinase, Perkin Elmer) on 96 wells microtiter plates. Briefly, recombinant purified human DDX3 (50-100 ng) was incubated in a 15 μL total reaction volume with reaction buffer (25 mM TrisHCl pH 7.5, 5 mM MgCl2), in the presence of increasing amounts of ATP and/or different combinations of ATP and the inhibitor to be tested. Reference curves in the absence of inhibitor (giving the 100% of enzymatic activity) and in the absence of enzyme (giving the baseline), were also included in each experiment. Reading was performed with a Microbeta Trilux (Perkin Elmer) luminometer, according to the manufacturer's protocol.
ATPase reactions were performed as described, in the presence of increasing amounts of inhibitor and variable ATP concentrations. Variations of the initial velocities of the reaction as a function of ATP concentrations in the absence or presence of 4 were analyzed with the equation: […]
Variation of the % inhibition as a function of compound FE15 at different ATP concentrations were fitted to the equation for cooperative binding: […]
where Vmax is the apparent maximal rate of the reaction in the absence of the inhibitor, [I] is the variable inhibitor concentration, n is the cooperativity index and Ki(app) is the apparent inhibition constant. Comparatively, fitting was done with the same Eq. (2) where n was kept fixed at the value of 1 (non-cooperativity hypothesis). F test was used to compare the two fittings and p value was calculated.
as §1
The anti-DDX3 activity of the compounds of the invention was evaluated by in vitro ATPase activity assay using the recombinant human DDX3 protein produced in E. coli. The potency of inhibition (Ki) for each molecule was calculated, representing the concentration of the inhibitor able to reduce the DDX3 ATPase activity by 50%

[3] = test system: cervical cancer HeLa cell line; assay: Antiproliferative activity against HeLa cells (CellTiter viability assay); type: cell-based; details: Homo sapiens
Procedure: (§2) Selected compounds from Table 1 were tested against the cervical cancer HeLa cell line for antiproliferative activity. Cell viability was measured with the CellTiter viability assay (Table 2). Table 3 lists the calculated antiproliferative potencies (EC50, dose required to suppress 50% of cell viability) for a series of representative compounds of the invention.

HIV-1 = assay: Antiviral assay, HIV-1 replication in infected PBMCs (viral RNA in supernatant); type: cell-based; details: for EC50: Human immunodeficiency virus 1, PBMC
Procedure: FIG. 1. A) Antiviral activity (expressed as % of viral load with respect to the control) of compounds FE56 and FE66 at 0.3 μM and 3 μM doses against single round HIV-1 replication in HeLaCD4+ cells infected with a wild type HIV-1 strain. Measurements were performed at 72 h post infection. B) Antiviral activity of compounds FE15 and FE66 on HIV-1 replication in phytohemagglutinin-stimulated peripheral blood mononuclear cells (PBMCs) […] with HeLa CD4^+-cell culture supernatants containing wild type HIV. Compounds were tested at 50 μM (FE15) and 5 μM (FE66). The HIV-1 RNA was quantified in the cell culture supernatant after 3, and 5 days of incubation. Results are expressed as HIV RNA copies/ml. Control (white bars).
FIG. 2. Antiviral activity of DDX3 inhibitors. A) Comparison of the antiviral activity (expressed as % of viral RNA with respect to the control) on infected PBMCs of a fixed dose of selected inhibitors. Measurements were performed at 72 h post infection. Values are the means of three independent replicates. Error bars are ±SD. White bars: control without drugs; dark grey bar: positive control with AZT (0.01 μM); black bar: first generation inhibitor FE15 (50 μM); light grey bars: second generation DDX3 inhibitors FE66, 11d and 38 (3 μM). B) Dose-response curves for the inhibiton of HIV-1 replication (expressed as % of viral RNA with respect to the control) in infected PBMCs by FE15 (circles) and 38 (triangles). Measurements were performed at 72 h post infection. Values are the means of three independent replicates. Error bars are ±SD.
In detail, 0.5 μg of each HIV-1 plasmid construct was transfected into CD4 HeLa cells by using the lipofectin reagent, according to the recommendations of the manufacturer (Invitrogen, Groningen, The Netherlands). After 3 days of incubation at 37° C., the cell supernatants, which contained reconstituted viable recombinant viruses, were collected. Quantification of the newly produced recombinant strains was obtained by determination of the HIV RNA copy number in the cell culture supernatants. Successively, 10 ml of transfected HeLa CD4^+-cell culture supernatants containing wild-type, and mutated recombinant HIV strain […], was used to infect aliquots of 10×10^6 phytohemagglutinin-stimulated peripheral blood mononuclear cells (PBMCs) from HIV-seronegative blood donors. After 4 h of incubation, supernatants were removed and infected PBMCs were incubated at 37° C. in 10 ml of RPMI 1640 medium (Eurobio, Les Ulis Cedex B, France) supplemented with 20% fetal calf serum (Life Technologies, Ltd., Paisley, Scotland), 2 mM l-glutamine, 100 U of penicillin per ml, 100 μg of streptomycin per ml, 10% interleukin-2 (ZeptoMetrix Co., Buffalo, N.Y.), 5 μg of hydrocortisone (Sigma Chemical Co.) per ml and with fourfold dilutions of antiretroviral drugs. No-drug controls for each drug dilution were included in each assay. After 3, 5 and 7 days of incubation the HIV-1 RNA in the cell culture supernatant was quantified. Recombinant HIV-1 strains from treatment-naive patients and multidrug resistance-associated changes were assayed in parallel. The degree of inhibition of viral replication was measured by determining the HIV-1 RNA level in the supernatants of cell cultures and was expressed as the fold increase in the 50% inhibitory concentrations (IC50s) for resistant recombinant HIV-1 variants compared with the IC50s for the wild-type recombinant variant. Each test was performed in triplicate.

HeLa cells = assay: Cell viability / cytotoxicity on HeLa cells; type: cell-based; details: HeLa CC50 / antiviral EC50
Procedure: (§3) Cell viability in the presence of the compounds has been determined by standard MTT assays.
as §2

[4] = Cell viability / cytotoxicity on HeLa cells; type: cell-based; details: human, HeLa cells (cervical cancer cell line); HeLa; Table 2 prints no unit; text gives μM; read-out: Cytotoxicity (CC50) HeLa, dose required to reduce 50% cell vitality
Procedure: as §3, §2

[5] = Cell viability / cytotoxicity on MOLT-4 cells; type: cell-based; details: human, MOLT-4 cells; MOLT-4; Table 2 prints no unit; read-out: Cytotoxicity (CC50) MOLT-4, dose required to reduce 50% cell vitality
Excerpt: as §3

MOLT-4 = assay: Cell viability / cytotoxicity on MOLT-4 cells; type: cell-based; details: MOLT-4 CC50 / antiviral EC50
Excerpt: as §3

[6] = Cell viability / cytotoxicity on PBMCs; type: cell-based; details: human; PBMCs; Table 2 prints no unit; read-out: Cytotoxicity (CC50) PBMCs, dose required to reduce 50% cell vitality
Excerpt: as §3

PBMCs = assay: Cell viability / cytotoxicity on PBMCs; type: cell-based; details: PBMCs CC50 / antiviral EC50
Excerpt: as §3

[7] = 48 hours, read-out: EC50 (μM) 48 hours, dose required to suppress 50% of cell viability
[8] = 72 hours, read-out: EC50 (μM) 72 hours, dose required to suppress 50% of cell viability
[9] = 72 h, read-out: EC50, anti-HIV activity
[10] = read-out: Antiviral activity, dose required to reduce 50% viral proliferation (measured as viral RNA load)

Row | Structure (SMILES) | IC50 [1] [µM] | Ki [2] [µM] | EC50 [3, 7] [µM] | EC50 [3, 8] [µM] | further results
1 | O=C(Nc1cccc([N+](=O)[O-])c1)Nc1cccc([N+](=O)[O-])c1 [Compound 29, 1,3-bis(3-nitrophenyl)urea] | 52 | – | – | – | –
2 | CC(=O)Nc1ccc(/C(C)=N/Nc2nc(Nc3ccccc3)nc(Nc3ccccc3)n2)cc1 [FE-56F] | – | 0.3 | 10 | 5 | –
3 | Oc1ccccc1/C=N/Nc1nc(Nc2ccc(F)cc2)nc(N2CCOCC2)n1 [Compound 11d, (E)-2-((2-(4-(4-Fluorophenylamino)-6-morpholino-1,3,5-triazin-2-yl)hydrazono)methyl)phenol] | – | 0.4 | – | – | melting point: 234 °C; EC50 (HIV-1; [9]): 2500 nM
4 | Cc1[nH]c2ccccc2c1/C=N/Nc1nc(Nc2ccc(F)cc2)nc(N2CCOCC2)n1 [FE-56M] | – | 0.2 | 10 | 5 | –
5 | Cc1ccc(NC(=O)c2cccc(NC(=O)Nc3cccc(C)c3C)c2)cc1C [EI-01A] | 131 | – | – | – | –
6 | Cc1ccccc1NC(=O)Nc1cccc(NC(=O)Nc2ccccc2C)c1 [EI-01] | 250 | – | – | – | fold higher potency against the helicase with respect to the ATPase activity [1]: did not discriminate between ATPase and helicase activities; IC50 [2]: 245 µM
7 | Oc1ccccc1/C=N/Nc1nc(Nc2ccc(F)cc2)nc(N2CCOCC2)n1 [Compound 16c] | – | – | – | – | Selectivity index HeLa, CC50/EC50 (HeLa cells): 1.0; CC50 [4]: 2.5 ± 0.3 µM; CC50 [5]: 5 ± 1 µM; Selectivity index MOLT-4, CC50/EC50 (MOLT-4): 2.0; EC50 (HIV-1; [10]): 2500 ± 100 nM; CC50 [6]: 10 ± 1 µM; Selectivity index PBMCs, CC50/EC50 (PBMCs): 4.0
8 | CCN(CC)c1nc(NCc2ccccc2)nc(N/N=C/c2ccccc2O)n1 [Compound 15k, (E)-2-((2-(4-(benzylamino)-6-(diethylamino)-1,3,5-triazin-2-yl)hydrazono)methyl)phenol] | – | 0.5 | 3 | 1 | –
9 | Oc1ccccc1/C=N/Nc1nc(Nc2ccc(F)cc2)nc(Nc2ccc(F)cc2)n1 [Compound 38, (E)-2-((2-(4,6-bis(4-Fluorophenylamino)-1,3,5-triazin-2-yl)hydrazono)methyl)phenol] | – | 0.1 | – | – | Selectivity index HeLa, CC50/EC50 (HeLa cells): 10; CC50 [4]: 20 ± 2 µM; CC50 [5]: 10 ± 1 µM; Selectivity index MOLT-4, CC50/EC50 (MOLT-4): 5.0; fold higher antiviral potency than the inhibitor FE15 (HIV-1; HIV-1 infected PBMCs, ratio of EC50): 41 fold; EC50 (HIV-1; [9]): 2000 nM; EC50 (HIV-1; [10]): 2000 ± 200 nM; CC50 [6]: 8 ± 0.5 µM; Selectivity index PBMCs, CC50/EC50 (PBMCs): 4.0
10 | Cc1ccccc1NC(=O)Nc1cccc(NC(=O)Nc2cccc(NC(=O)Nc3ccccc3C)c2)c1 [Compound 31, 1,3-bis(3-{[(2-methylphenyl)carbamoyl]amino}phenyl)urea] | 1300 | – | – | – | –
11 | O=C(Nc1cccc(C(=O)Nc2ccccc2Cl)c1)Nc1ccccc1Cl [EI-01B] | 1300 | – | – | – | –
12 | Nc1cccc(NC(=O)Nc2cccc(N)c2)c1 [Compound 30, 1,3-bis(3-aminophenyl)urea] | 24 | – | – | – | –
13 | COc1ccc(Nc2nc(NCc3ccco3)nc(N/N=C/c3cc([N+](=O)[O-])ccc3O)n2)cc1 [FE-56A] | – | 31.7 | 8 | 4 | –
14 | Cc1ccccc1NC(=O)Nc1cccc([N+](=O)[O-])c1 [Compound 25, 1-(3-nitrophenyl)-3-o-tolylurea] | – | – | – | – | fold higher potency against the helicase with respect to the ATPase activity [1]: 11 fold; fold improvement in anti-helicase activity with respect to EI01 [1]: 245 fold; IC50 [2]: 11 µM
15 | CCN(CC)c1nc(NCc2ccccc2)nc(N/N=C2/C(=O)Nc3ccccc32)n1 [Compound 14g, (E)-3-(2-(4-(benzylamino)-6-(diethylamino)-1,3,5-triazin-2-yl)hydrazono)indolin-2-one] | – | 0.1 | 10 | 10 | –
16 | Cc1ccccc1NC(=O)Nc1cccc(N)c1 [Compound 26, 1-(3-aminophenyl)-3-o-tolylurea] | 5.7 | – | – | – | fold improvement in anti-helicase activity with respect to EI01 [1]: 43 fold
